Experiments:
[1] = prophylactic drops; cited from earlier work
[2] = topical use in the ear; cited from earlier work
ear = conditions: guinea pigs; cited from earlier work
[3] = test system: inner ear hearing function; assay: Application to the round window membrane with monitoring of compound action potential (CAP); assay type: in vivo, guinea pigs; conditions: 0.05 to 1.0% applied directly to the round window membrane, more than 50 animals
Excerpt: The inventor conducted animal studies involving application of alpha agonists, including phenylphrine (and other similar agents) directly in the middle ear space of guinea pigs. In these studies, phenylephrine at a concentration of 0.05 to 1.0% was applied directly to the round window membrane of the animal. […] The monitoring of CAP was not specifically reported in published reports, but rather was monitored on a routine basis as a part of the experimental setup. […] See also Isaacson G et al., Oxymetazoline solutions inhibit middle ear pathogens and are not ototoxic.

[4] = topical; cited from earlier work

Compound	toxicity for the inner ear (ototoxicity) [2]	effectiveness in treating middle ear infections [4]	further results
O=C(O)c1cn(C2CC2)c2cc(N3CCNCC3)c(F)cc2c1=O [ciprofloxacin]	–	–	prevention of post-operative ear drainage after tube insertion [1]: effective at preventing post-operative ear drainage after tube insertion
CC1COc2c(N3CCN(C)CC3)c(F)cc3c(=O)c(C(=O)O)cn1c23 (stereo not drawn) [ofloxacin]	demonstrated lack of toxicity for the inner ear	–	–
Cc1cc(C(C)(C)C)c(O)c(C)c1CC1=NCCN1 [oxymetazoline]	–	–	toxicity to the ear (ear): non-toxic to the ear
CNC[C@H](O)c1cccc(O)c1 [phenylephrine]	–	–	compound action potential (CAP), a measure of inner ear hearing function [3]: not found to be adversely affected
NC[C@H]1O[C@H](O[C@H]2[C@H](O)[C@@H](O[C@H]3O[C@H](CO)[C@@H](O)[C@H](N)[C@H]3O)[C@H](N)C[C@@H]2N)[C@H](N)C[C@@H]1O [tobramycin]	scattered reports of ototoxicity	effective in treating middle ear infections topically	–
Gentamycin	scattered reports of ototoxicity	effective in treating middle ear infections topically	–
neomycin	–	effective in treating middle ear infections topically	–
